# Experimental data as given in publication PMC5768343, “A natural inhibitor of kidney-type glutaminase: a withanolide from Physalis pubescens with potent anti-tumor activity” (Oncotarget, 2017).
# Assays:
# SW1990 cells = assay: Combination with benserazide, CCK8 viability and CompuSyn combination index; format: cell-based, human; settings: combined use with benserazide, ratio less than 1:50, CompuSyn
# Excerpt: Tumor cells are speculated to maintain growth and proliferation through a variety of energy metabolism pathways. Therefore, targeting at a single energy metabolism material might not be an effective method for cancer therapy. It has been determined that growing cancer cells were strongly dependent on energy sources such as glucose and glutamine. We supposed that the blocking of both glucose and glutamine metabolism pathways could display a synergistic tumor inhibition. Hexokinase 2 (HK2) was the crucial enzyme controlling the first step of glycolysis, and systemic deletion of HK2 can impair the tumor progression in mouse models. Nowadays, Metformin (Met), 2-Deoxyglucose (2-DG) and 3-Bromopyruvate (3-BrPA) are most commonly reported HK2 inhibitors. […] The combined inhibitory effects of physapubescin K and benserazide on the growth of SW1990 cells were evaluated. […]
# Figure 8 Synergy of physapubescin K (PSBK) in combination treatments (A) Cells were cultured for 1 day with or without the indicated doses of PSBK and benserazide, and cell viability was evaluated by CCK8 assay. (B) At the indicated concentration ratio of PSBK: benserazide combinations at different effect levels, ED50, ED75 and ED95 were calculated using the CompuSyn software. […] The proportion of cells in proliferation is counted by manual counting (D).
# intracellular KGA = target: T1, intracellular KGA (Homo sapiens, UniProt O94925); assay: Cellular thermal shift assay (CETSA) in intact SW1990 cells; format: cell-based; settings: 10 μM, 4 hours, 48°C without compound
# T1 construct: endogenous in cells; host or cells: SW1990
# T1 sequence (O94925 55-669): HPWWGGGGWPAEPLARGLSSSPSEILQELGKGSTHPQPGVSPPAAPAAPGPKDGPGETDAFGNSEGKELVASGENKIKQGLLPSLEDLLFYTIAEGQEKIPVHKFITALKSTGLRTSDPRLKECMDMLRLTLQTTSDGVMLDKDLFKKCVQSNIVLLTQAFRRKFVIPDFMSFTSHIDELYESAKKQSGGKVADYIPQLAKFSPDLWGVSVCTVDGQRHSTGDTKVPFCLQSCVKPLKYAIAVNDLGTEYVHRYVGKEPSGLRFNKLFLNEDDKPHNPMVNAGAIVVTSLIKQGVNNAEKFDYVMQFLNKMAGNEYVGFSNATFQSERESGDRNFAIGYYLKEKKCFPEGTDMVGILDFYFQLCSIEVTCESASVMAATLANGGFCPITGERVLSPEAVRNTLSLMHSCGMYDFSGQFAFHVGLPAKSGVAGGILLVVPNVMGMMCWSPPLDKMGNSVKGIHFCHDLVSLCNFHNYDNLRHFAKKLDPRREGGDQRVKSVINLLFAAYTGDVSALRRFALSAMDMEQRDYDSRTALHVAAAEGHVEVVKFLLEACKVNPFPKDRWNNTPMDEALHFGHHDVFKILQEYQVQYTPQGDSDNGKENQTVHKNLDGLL
# Excerpt: To further investigate the interaction of the compound with KGA, microscale thermophoresis method (MST) was used to assay the binding affinity between physapubescin K and KGA. This technology can quantify protein-protein or protein-small molecule interactions with high sensitivity through detecting fluorescent changes of molecules during thermophoresis. […] However, it was of vital importance to verify whether it could bind with the intracellular KGA. The cellular thermal shift assay (CETSA), which based on the biophysical principle of ligand-induced thermal stabilization of target protein [25], was thus conducted to investigate its affinity with intracellular KGA. […] As shown in Figure 4B and 4C, physapubescin K increased the thermal stability of KGA in intact cells from tolerate temperature of 48°C to temperature of 50°C.
# The ability of compounds to interact with, and thereby stabilize the target in intact cells, was analyzed essentially as described by Alshareef A et al.. Briefly, cells cultured in 10-cm tissue culture dishes at about 90% confluence were treated with media containing DMSO or 10 μM physapubescin K for 4 hours. After treatment, cells were detached with cell scraper, collected by centrifugation and subsequently resuspended in PBS. The cell suspension was aliquoted into seven PCR tubes and heated for 3 minutes to 40, 42, 44, 46, 48, 50 or 52°C. […]
smiles,measurement,setting,value
CO[C@H]1O[C@@H]([C@@H](C)[C@H]2C[C@H](OC(C)=O)[C@H]3[C@@H]4C[C@H]5O[C@]56[C@@H](O)C=CC(=O)[C@]6(C)[C@H]4CC[C@@]32C)C[C@]2(C)O[C@]12C [physapubescin K],CI value,SW1990 cells,less than 0.8
same,"thermal stability of KGA, tolerate temperature",intracellular KGA,50 °C
